This passage reports IC50 results from patent US9012443B2 (Amgen Inc., priority 2011, dated 2015).

In general, IC50 refers to the point on the concentration scale where inhibition reaches its midpoint.

In assay [1] the target is T1, Nav 1.7 (Homo sapiens (Human), UniProt Q15858). The assay is described as follows: Nav 1.7 IWQ in vitro assay (IonWorks Quattro population patch-clamp). Format: cell-based. The note with it: 293 cells stably transfected with Nav 1.7; second part of table; read-out: Nav1.7 IWQ IC50 IP. In short, it runs like this:
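Percent block, measured in duplicate, came from peak minus end-of-pulse current on the 26th −20 mV step, and IC50 was fitted against concentration. Stably transfected 293 cells were recorded in population patch-clamp mode before and after a single test concentration, which was added over 3–8 min while cells were unclamped.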
On the technique in general: The patch-clamp technique gives a direct electrical read-out from membranes.

Assay [2] addresses T1, Nav 1.7. The assay is described as follows: Nav 1.7 in vitro PX assay (PatchXpress whole cell voltage clamp). It is filed as cell-based. Conditions: 293 cells, human Nav1.7, partially inactivated state; read-out: Nav1.7 PX IC50 IP. In short, it runs like this: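 Partially inactivated channel state (holding potential for 20–50% inactivation) probed in human Nav1.7-transfected 293 cells by automated patch clamp, test pulse −10 mV for 20 msec.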

The structures appear in SMILES notation. Where a name gives a salt, the structure may show the parent alone.

T1 sequence (Q15858 whole entry): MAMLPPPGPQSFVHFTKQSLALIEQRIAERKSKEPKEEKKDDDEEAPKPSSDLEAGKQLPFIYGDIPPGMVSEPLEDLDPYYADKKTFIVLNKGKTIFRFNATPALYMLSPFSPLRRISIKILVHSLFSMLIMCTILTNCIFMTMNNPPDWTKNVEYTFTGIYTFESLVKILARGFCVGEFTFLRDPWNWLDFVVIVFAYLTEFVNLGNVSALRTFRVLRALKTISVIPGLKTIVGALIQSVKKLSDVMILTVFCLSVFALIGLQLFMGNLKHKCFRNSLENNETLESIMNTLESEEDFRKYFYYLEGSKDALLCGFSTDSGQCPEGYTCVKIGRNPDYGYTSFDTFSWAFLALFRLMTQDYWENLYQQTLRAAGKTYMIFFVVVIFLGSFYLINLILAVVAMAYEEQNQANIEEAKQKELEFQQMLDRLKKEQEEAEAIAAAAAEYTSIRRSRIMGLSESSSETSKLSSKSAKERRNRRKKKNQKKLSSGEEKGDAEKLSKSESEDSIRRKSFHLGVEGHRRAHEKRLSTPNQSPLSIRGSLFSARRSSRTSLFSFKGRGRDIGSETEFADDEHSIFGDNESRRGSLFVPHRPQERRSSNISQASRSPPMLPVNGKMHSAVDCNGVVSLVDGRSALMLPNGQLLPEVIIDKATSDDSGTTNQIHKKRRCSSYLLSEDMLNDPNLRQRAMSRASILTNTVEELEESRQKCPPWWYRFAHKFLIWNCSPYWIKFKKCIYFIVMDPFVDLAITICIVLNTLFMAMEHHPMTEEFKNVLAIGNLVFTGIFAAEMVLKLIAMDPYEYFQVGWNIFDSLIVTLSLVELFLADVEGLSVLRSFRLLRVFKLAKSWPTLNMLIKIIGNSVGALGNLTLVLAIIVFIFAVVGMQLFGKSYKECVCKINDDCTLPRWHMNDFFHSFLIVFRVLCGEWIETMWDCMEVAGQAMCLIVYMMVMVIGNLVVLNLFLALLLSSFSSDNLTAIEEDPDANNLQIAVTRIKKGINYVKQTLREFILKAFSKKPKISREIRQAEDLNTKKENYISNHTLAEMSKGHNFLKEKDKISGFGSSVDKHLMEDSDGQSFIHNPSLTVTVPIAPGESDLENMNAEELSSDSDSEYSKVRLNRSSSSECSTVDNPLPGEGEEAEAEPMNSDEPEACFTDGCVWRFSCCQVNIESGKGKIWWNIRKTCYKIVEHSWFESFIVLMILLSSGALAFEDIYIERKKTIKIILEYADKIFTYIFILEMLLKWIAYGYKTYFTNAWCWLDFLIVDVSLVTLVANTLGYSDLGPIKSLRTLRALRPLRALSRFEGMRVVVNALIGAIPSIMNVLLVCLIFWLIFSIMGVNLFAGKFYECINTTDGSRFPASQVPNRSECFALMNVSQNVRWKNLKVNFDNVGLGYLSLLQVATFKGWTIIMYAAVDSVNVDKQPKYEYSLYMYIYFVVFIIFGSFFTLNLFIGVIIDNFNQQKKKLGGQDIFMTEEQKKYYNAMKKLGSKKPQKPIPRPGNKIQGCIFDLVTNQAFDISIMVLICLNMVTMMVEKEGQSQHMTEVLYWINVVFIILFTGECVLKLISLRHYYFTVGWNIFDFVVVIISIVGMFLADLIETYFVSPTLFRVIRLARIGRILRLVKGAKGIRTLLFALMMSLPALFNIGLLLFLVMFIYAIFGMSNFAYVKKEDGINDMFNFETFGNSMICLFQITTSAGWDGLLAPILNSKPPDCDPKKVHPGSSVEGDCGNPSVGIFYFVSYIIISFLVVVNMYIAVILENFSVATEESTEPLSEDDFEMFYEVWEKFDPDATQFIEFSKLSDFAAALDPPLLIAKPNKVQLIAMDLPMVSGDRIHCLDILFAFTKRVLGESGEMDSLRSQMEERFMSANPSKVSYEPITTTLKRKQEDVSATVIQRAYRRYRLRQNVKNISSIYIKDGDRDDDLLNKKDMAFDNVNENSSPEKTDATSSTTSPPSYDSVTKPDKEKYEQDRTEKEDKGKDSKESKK

As to `COc1ccccc1-c1nccc2cc(S(=O)(=O)Nc3ncns3)ccc12` [Example 194, 1-(2-METHOXYPHENYL)-N-(1,2,4-THIADIAZOL-5-YL)ISOQUINOLINE-6-SULFONAMIDE], the figures for the IC50 at Nav 1.7 [1] and at Nav 1.7 [2] were 0.01 µM and 0.255 µM, respectively.
For the molecule `COc1cc(Cl)ccc1-c1ncc(C#N)c2cc(S(=O)(=O)Nc3nccs3)ccc12` [Example 241, 1-(4-chloro-2-methoxyphenyl)-4-cyano-N-(thiazol-2-yl)isoquinoline-6-sulfonamide], the IC50 was determined as 0.24 µM at Nav 1.7 [1] and 0.48 µM on Nav 1.7 [2].
For `COc1cc(C#N)ccc1-c1nccc2cc(S(=O)(=O)Nc3nccs3)ccc12` [Example 205, 1-(4-CYANO-2-METHOXYPHENYL)-N-(THIAZOL-2-YL)ISOQUINOLINE-6-SULFONAMIDE] the same measures were 0.02 µM and 0.47 µM.
For the molecule `COc1cc(C(F)(F)F)ccc1-c1nccc2cc(S(=O)(=O)Nc3nncs3)ccc12` [Example 184, 1-(2-METHOXY-4-(TRIFLUOROMETHYL)PHENYL)-N-(1,3,4-THIADIAZOL-2-YL)ISOQUINOLINE-6-SULFONAMIDE], the IC50 at Nav 1.7 [1] was determined as 0.32 µM; on Nav 1.7 [2], 0.912 µM.
For `COc1cc(C(F)(F)F)ccc1-c1nccc2cc(S(=O)(=O)Nc3ncc(C#N)s3)ccc12` [Example 197, N-(5-CYANOTHIAZOL-2-YL)-1-(2-METHOXY-4-(TRIFLUOROMETHYL)PHENYL)ISOQUINOLINE-6-SULFONAMIDE] the same measures were 2.93 µM and 3.06 µM.
For `COc1cc(C#N)ccc1-c1ccnc2cc(S(=O)(=O)Nc3nccs3)ccc12` [Example 273, 4-(4-CYANO-2-METHOXYPHENYL)-N-(THIAZOL-2-YL)QUINOLINE-7-SULFONAMIDE] the same measures were 0.02 µM and 0.5 µM.
Consider `COc1cc(C(F)F)ccc1-c1nccc2cc(S(=O)(=O)Nc3nccs3)ccc12` [Example 224, 1-(4-(DIFLUOROMETHYL)-2-METHOXYPHENYL)-N-(THIAZOL-2-YL)ISOQUINOLINE-6-SULFONAMIDE], for which the IC50 at Nav 1.7 [1] turned out to be 0.02 µM; on Nav 1.7 [2], 0.313 µM.
As for `O=S(=O)(Nc1nccs1)c1ccc2c(-c3ccn(-c4ccccc4)c3)nccc2c1` [Example 207, 1-(1-PHENYL-1H-PYRROL-3-YL)-N-(THIAZOL-2-YL)ISOQUINOLINE-6-SULFONAMIDE 2,2,2-TRIFLUOROACETATE], the IC50 at Nav 1.7 [1] was found to be 2.1 µM; on Nav 1.7 [2] it was 7.29 µM.
The matching figures for `COc1cc(C#N)ccc1-c1ncc(F)c2cc(S(=O)(=O)Nc3nccs3)ccc12` [Example 214, 1-(4-CYANO-2-METHOXYPHENYL)-4-FLUORO-N-(THIAZOL-2-YL)ISOQUINOLINE-6-SULFONAMIDE]: 0.02 µM and 0.211 µM.
As to `COc1cc2cc(S(=O)(=O)Nc3nccs3)ccc2c(-c2ccc(C(F)(F)F)cc2OC)n1` [Example 221, 3-METHOXY-1-(2-METHOXY-4-(TRIFLUOROMETHYL)PHENYL)-N-(THIAZOL-2-YL)ISOQUINOLINE-6-SULFONAMIDE], the results for the IC50 on Nav 1.7 [1] and at Nav 1.7 [2] were 0.11 µM and 1.53 µM, respectively.
In the case of `COc1cc(C(F)(F)F)ccc1-c1cccc2cc(S(=O)(=O)Nc3ncc(F)s3)ccc12` [Example 107], the results for the IC50 at Nav 1.7 [1] and at Nav 1.7 [2] were 0.33 µM and 3.32 µM, respectively.
As to `COc1cc(C(F)(F)F)ccc1-c1nc(Cl)cc2cc(S(=O)(=O)Nc3nccs3)ccc12` [Example 219, 3-CHLORO-1-(2-METHOXY-4-(TRIFLUOROMETHYL)PHENYL)-N-(THIAZOL-2-YL)ISOQUINOLINE-6-SULFONAMIDE], the values for the IC50 on Nav 1.7 [1] and at Nav 1.7 [2] were 0.17 µM and 0.796 µM, respectively.
For `Cn1cncc1-c1cc(C(F)(F)F)ccc1-c1cccc2cc(S(=O)(=O)Nc3ccncn3)ccc12` [Example 123] the same measures were 0.05 µM and 0.516 µM.
The matching figures for `COc1cc(C(F)(F)F)ccc1-c1ncc(C#N)c2cc(S(=O)(=O)Nc3ccncn3)ccc12` [Example 242, 4-CYANO-1-(2-METHOXY-4-(TRIFLUOROMETHYL)PHENYL)-N-(PYRIMIDIN-4-YL)ISOQUINOLINE-6-SULFONAMIDE]: 2.5 µM and 3.89 µM.
For `COc1cc(C(F)(F)F)ccc1-c1ncnc2cc(S(=O)(=O)Nc3nncs3)ccc12` [Example 268, 4-(2-METHOXY-4-(TRIFLUOROMETHYL)PHENYL)-N-(1,3,4-THIADIAZOL-2-YL)QUINAZOLINE-7-SULFONAMIDE] the same measures were 1.1 µM and 2.52 µM.
Consider `O=S(=O)(Nc1ccncn1)c1ccc2c(-c3ccccc3OCC(F)(F)F)nccc2c1` [Example 174, N-(PYRIMIDIN-4-YL)-1-(2-(2,2,2-TRIFLUOROETHOXY)PHENYL)ISOQUINOLINE-6-SULFONAMIDE], for which the figures for the IC50 at Nav 1.7 [1] and on Nav 1.7 [2] were 0.64 µM and 29.8 µM, respectively.
`COc1cc(C(F)(F)F)ccc1-c1cncc2cc(S(=O)(=O)Nc3ccncn3)ccc12` [Example 285, 4-(2-METHOXY-4-(TRIFLUOROMETHYL)PHENYL)-N-(PYRIMIDIN-4-YL)ISOQUINOLINE-7-SULFONAMIDE HYDROCHLORIDE]: the figures for the IC50 on Nav 1.7 [1] and on Nav 1.7 [2] were 0.04 µM and 0.58 µM, respectively.
On to `COc1ccccc1-c1nncc2cc(S(=O)(=O)Nc3ncc(F)s3)ccc12` [Example 258], for which the IC50 on Nav 1.7 [1] was 0.26 µM; on Nav 1.7 [2], 1.05 µM.
As for `O=S(=O)(Nc1ncns1)c1ccc2c(C3CCCN3)cccc2c1` (stereo not shown) [Example 95, 5-(PYRROLIDIN-2-YL)-N-(1,2,4-THIADIAZOL-5-YL)NAPHTHALENE-2-SULFONAMIDE 2,2,2-TRIFLUOROACETATE], the half-inhibitory concentration (IC50) is 0.54 µM on Nav 1.7 [1] and 7.96 µM at Nav 1.7 [2].
The matching figures for `COc1cc(Cl)ccc1-c1ncnc2cc(S(=O)(=O)Nc3nccs3)ccc12` [Example 267, 4-(4-CHLORO-2-METHOXYPHENYL)-N-(THIAZOL-2-YL)QUINAZOLINE-7-SULFONAMIDE]: 0.01 µM and 0.3 µM.
For `N#CCn1c(-c2cccc3cc(S(=O)(=O)Nc4ccncn4)ccc23)cc2cc(F)ccc21` [Example 105] the same measures were 2.48 µM and 7.84 µM.
Consider `COc1cc(F)ccc1-c1ccnc2cc(S(=O)(=O)Nc3nccs3)ccc12` [Example 274, 4-(4-FLUORO-2-METHOXYPHENYL)-N-(THIAZOL-2-YL)QUINOLINE-7-SULFONAMIDE], for which the IC50 at Nav 1.7 [1] amounted to 0.03 µM; on Nav 1.7 [2], 0.49 µM.
For `O=S(=O)(Nc1ccncn1)c1ccc2c(OCCCc3ccc(Cl)cc3)nccc2c1` [Example 132, 1-(3-(4-CHLOROPHENYL)PROPOXY)-N-(PYRIMIDIN-4-YL)ISOQUINOLINE-6-SULFONAMIDE] the same measures were 0.87 µM and 7.9 µM.
The matching figures for `O=S(=O)(Nc1nccs1)c1ccc2c([C@@H]3CCCN3C3CCOCC3)cccc2c1` [Example 103, (S)-5-(1-(TETRAHYDRO-2H-PYRAN-4-YL)PYRROLIDIN-2-YL)-N-(THIAZOL-2-YL)NAPHTHALENE-2-SULFONAMIDE COMPOUND WITH DIETHYLAMINE (1:1)]: 1.58 µM and 14.5 µM.
For `COc1cc(Cl)ccc1-c1nccc2cc(S(=O)(=O)Nc3ccncn3)ccc12` [Example 160, 1-(4-CHLORO-2-METHOXYPHENYL)-N-(PYRIMIDIN-4-YL)ISOQUINOLINE-6-SULFONAMIDE] the same measures were 0.02 µM and 1.33 µM.
In the case of `COc1ccccc1-c1nncc2cc(S(=O)(=O)Nc3nccs3)ccc12` [Example 252, 1-(2-METHOXYPHENYL)-N-(THIAZOL-2-YL)PHTHALAZINE-6-SULFONAMIDE], the results for the IC50 on Nav 1.7 [1] and on Nav 1.7 [2] were 0.12 µM and 1.92 µM, respectively.
On to `COc1cc(F)ccc1-c1nncc2cc(S(=O)(=O)Nc3ncc(F)s3)ccc12` [Example 256, 1-(4-FLUORO-2-METHOXYPHENYL)-N-(5-FLUOROTHIAZOL-2-YL)PHTHALAZINE-6-SULFONAMIDE], for which the IC50 was 0.07 µM on Nav 1.7 [1] and 0.84 µM on Nav 1.7 [2].
The matching figures for `O=S(=O)(Nc1ncns1)c1ccc2c(C3CCCN3Cc3ccccc3)cccc2c1` (stereo not shown) [Example 97]: 0.46 µM and 2.22 µM.
The matching figures for `Cn1cccc1-c1nccc2cc(S(=O)(=O)Nc3nccs3)ccc12` [Example 244, 1-(1-METHYL-1H-PYRROL-2-YL)-N-(THIAZOL-2-YL)ISOQUINOLINE-6-SULFONAMIDE]: 1.17 µM and 11.3 µM.
For `O=S(=O)(Nc1nccs1)c1ccc2c(-c3ccc(C(F)(F)F)cc3F)nccc2c1` [Example 228, 1-(2-FLUORO-4-(TRIFLUOROMETHYL)PHENYL)-N-(THIAZOL-2-YL)ISOQUINOLINE-6-SULFONAMIDE] the same measures were 0.11 µM and 1.52 µM.
Take `O=S(=O)(Nc1ccncn1)c1ccc2c(-c3ccc(C(F)(F)F)cc3)nccc2c1` [Example 141, N-(PYRIMIDIN-4-YL)-1-(4-(TRIFLUOROMETHYL)PHENYL)ISOQUINOLINE-6-SULFONAMIDE]: the IC50 on Nav 1.7 [1] was 2.3 µM; on Nav 1.7 [2], 29.6 µM.
Regarding `Cc1cc(C#N)ccc1-c1nccc2cc(S(=O)(=O)Nc3nccs3)ccc12` [Example 210, 1-(4-CYANO-2-METHYLPHENYL)-N-(THIAZOL-2-YL)ISOQUINOLINE-6-SULFONAMIDE 2,2,2-TRIFLUOROACETATE], the 50% inhibitory concentration (IC50) came to 0.14 µM on Nav 1.7 [1] and 0.888 µM at Nav 1.7 [2].
For `COc1cccc(F)c1-c1nccc2cc(S(=O)(=O)Nc3ccncn3)ccc12` [Example 158, 1-(2-FLUORO-6-METHOXYPHENYL)-N-(PYRIMIDIN-4-YL)ISOQUINOLINE-6-SULFONAMIDE] the same measures were 0.18 µM and 5.03 µM.
Turning to `O=S(=O)(Nc1ccncn1)c1ccc2c(-c3ccc(C(F)(F)F)cc3-n3ccnc3)cccc2c1` [Example 121], the values for the IC50 at Nav 1.7 [1] and at Nav 1.7 [2] were 0.03 µM and 0.864 µM, respectively.
Consider `CC1CCCN1c1cccc2cc(S(=O)(=O)Nc3ncns3)ccc12` (stereo not shown) [Example 91], for which the IC50 at Nav 1.7 [1] amounted to 0.27 µM; at Nav 1.7 [2], 1.47 µM.
